Measurements from patent EP1202746B1, “NSAID AND EGFR KINASE INHIBITOR CONTAINING COMPOSITION FOR THE TREATMENT OR INHIBITION OF COLONIC POLYPS AND COLORECTAL CANCER” (Wyeth Holdings Corporation, priority 1999, dated 2001).

Tested on: intestinal polyps (adenomas)
Test: Min mouse intestinal polyp test procedure emulating familial adenomatous polyps (FAP); polyps counted on day 61
Assay type: in vivo, Min mouse (C57BL/6J-Min/+)
Excerpt: The procedure described below emulates familial adenomatous polyps (FAP) in humans using the Min mouse (C57BL/6J-Min/+), which is a strain which has […] of the APC gene. These animals develop multiple intestinal polyps (adenomas) that ultimately progress to form adenocarcinomas. The polyps that develop in Min mice express EGFR and have activated COX-2.
Test animals were divided into four treatment groups: Group I, control; Group II, N-[4-[(3-bromophenyl)amino]-6-quinazolinyl]-2-butynamide; Group III, sulindac; and Group IV, combination of sulindac and N-[4-[(3-bromophenyl)amino]-6-quinazolinyl]-2-butynamide (hereinafter referred to as the NSAID/EGFR kinase inhibitor combination). The test compound was blended with a standard murine chow and animals were given ad libitum access to the food, in quantities corresponding to the following approximate daily dosages: Group II - 40 mg/kg/day N-[4-[(3-bromophenyl)amino]-6-quinazolinyl]-2-butynamide; […]; and Group IV - 40 mg/kg/day N-[4-[(3-bromophenyl)amino]-6-quinazolinyl]-2-butynamide and 20 mg/kg/day sulindac. The animals were treated for 60 days. The food was weighed once per week to determine consumption, and the animals also weighed weekly. On day 61, the animals were euthanized with CO2 inhalation, and the entire intestinal tract from stomach to anus was removed. The intestinal tract was injected with Bouins fixative, and allowed to fix for several days. The intestinal tracts were then opened and the number of polyps counted. Statistical analysis was performed using the Student's t-Test; a p value of ≤ 0.05 is considered statistically significant.
The animals were treated for 60 days. The food was weighed once per week to determine consumption, and the animals also weighed weekly. On day 61, the animals were euthanized with CO2 inhalation, and the entire intestinal tract from stomach to anus was removed. The intestinal tract was injected with Bouins fixative, and allowed to fix for several days. The intestinal tracts were then opened and the number of polyps counted. Statistical analysis was performed using the Student's t-Test; a p value of ≤ 0.05 is considered statistically significant.

## CC#CC(=O)Nc1ccc2ncnc(Nc3cccc(Br)c3)c2c1 [N-[4-[(3-bromophenyl)amino]-6-quinazolinyl]-2-butynamide]
Group II: 40 mg/kg/day in chow, 60 days, control Group I 32.3 ± 20.7
  Number of Polyps: 15.6 ± 10.6

## CC1=C(CC(=O)O)c2cc(F)ccc2/C1=C\c1ccc([S+](C)[O-])cc1 (centres unmarked) [sulindac]
Group III: 20 mg/kg/day sulindac in chow, 60 days, control Group I 32.3 ± 20.7
  Number of Polyps: 10.0 ± 6.6
Third run, Group III: 5 mg/kg/day sulindac in chow, 60 days, control Group I 19.5 ± 14.1
  Number of Polyps: 20.6 ± 11.8
Third run, sulindac alone at the 5mg/kg dose
  polyp numbers (result in words): did not reduce polyp numbers at all

## CCOc1cc2ncc(C#N)c(Nc3ccc(F)c(Cl)c3)c2cc1NC(=O)C=CCN(C)C [4-dimethylamino-but-2-enoic acid [4-(3-chloro-4-fluoro-phenylamino)-3-cyano-7-ethoxy-quinolin-6-yl]-amide]
Third run, alone, 20 mg/kg, 60 days, versus control
  reduced polyp numbers: 87%
